{"source": "patent US20080207532A1", "about": "“Use of Nordihydroguaiaretic Acid Derivatives in the Treatment of Drug Resistant Cancer, Viral and Microbial Infection” (Johns Hopkins University, priority 2004, published 2008)", "key": {"[1]": {"tested_on": "MDR1 mRNA and Pgp", "test": "Dox induction of MDR1 gene expression in MCF-7 cells", "format": "cell-based, human", "conditions": "MCF-7, 0.05 μM Dox with 5.0 μM M4N, two days", "description": "Total RNA was isolated using the Trizol Reagent (Invitrogen, Carlsbad, Calif.). RT-PCR was carried out with the Superscript II One-Step RT-PCR system with Platinum Taq DNA Polymerase (Invitrogen) according to the manufacturer's protocol using oligonucleotide primers specific for MDR1: […]\nCultured cells were incubated in a solution of 10 mM EDTA and 10 mM EGTA in PBS and then harvested by scraping with a Teflon® cell scraper. The cells were pelleted and lysed in modified RIPA buffer [50 mM Tris-HCl (pH 7.4), 1% NP-40, 0.25% Na-deoxycholate, 150 mM NaCl, 1 mM EDTA (pH 8.0)] containing Protease Inhibitor Cocktail (Sigma Chemical Co.). The lysate was cleared by centrifligation and protein concentrations were determined with the Bio-Rad Protein Assay (Bio-Rad Laboratories, Hercules, Calif.). Protein samples were separated by SDS-PAGE and electroblofted to a Hybond enhanced chemiluminescence (ECL) nitrocellulose membrane (Amersham) with a semidry blotting apparatus and detected as described in the instruction manual of the ECL Western Blotting System (Amersham). The antibodies used were primary rabbit polyclonal antibodies against Pgp and cyclin B and a horseradish […] conjugated secondary antibody (Santa Cruz Biotechnology). Relative band intensities were measured with ImageJ software. […]"}, "[2]": {"tested_on": "NCI/ADR-RES cells", "test": "cell proliferation, NCI/ADR-RES cells in culture", "format": "cell-based, human", "conditions": "72 hours"}}, "data": [{"smiles": "COc1ccc(C[C@@H](C)[C@@H](C)Cc2ccc(OC)c(OC)c2)cc1OC", "note": "[M4N, tetra-o-methyl nordihydroguaiaretic acid]", "values": [{"measurement": "induction of MDR1 expression by Dox", "setting": "[1]", "result": "abolished"}, {"measurement": "M4N required to achieve a total cell arrest", "setting": "[2]", "result": 40, "unit": "µM"}]}]}
